This note sets out measurements from ChEMBL document CHEMBL1155044, “Elucidation of different binding modes of purine nucleosides to human deoxycytidine kinase” (J Med Chem, 2008).

For data set [1], the system named is Nc1nc(O)c2ncn([C@H]3C[C@H](O)[C@@H](CO)O3)c2n1. To be noted: Homo sapiens.
Data set [2] shares this test system. To be noted: Homo sapiens. This is another data set of the same source.
The species named for data set [3] is Homo sapiens.
For data set [4], the species on record is Homo sapiens. The source holds these as a separate data set.

Chain of Deoxycytidine kinase (Homo sapiens), P27707 (P27707 whole entry): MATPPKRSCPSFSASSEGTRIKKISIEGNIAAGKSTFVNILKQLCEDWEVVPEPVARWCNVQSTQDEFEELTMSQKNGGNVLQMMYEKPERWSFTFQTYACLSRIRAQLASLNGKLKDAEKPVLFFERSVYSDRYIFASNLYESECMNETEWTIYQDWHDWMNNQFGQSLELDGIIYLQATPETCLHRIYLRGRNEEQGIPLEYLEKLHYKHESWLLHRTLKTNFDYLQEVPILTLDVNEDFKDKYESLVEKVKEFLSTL

As usually defined, the Km is the concentration of substrate that gives half-maximal velocity. In general, kcat refers to the maximal rate divided by the concentration of active sites. Turning to “Deoxycytidine kinase (Homo sapiens), P27707”, in data set [1], the Km worked out at 41 µM and the kcat stood at 0.53 s⁻¹. In addition, the Km in data set [2] came to 181 µM.

On to `Nc1nc(O)c2ncn([C@H]3C[C@H](O)[C@@H](CO)O3)c2n1`, for which, in the data set filed under Homo sapiens [3], the Km stood at 700 µM and the kcat stood at 3.6 s⁻¹. Moreover, in the data set filed under Homo sapiens [4], the Km amounted to 10.4 µM and the kcat stood at 0.43 s⁻¹.
